Test results from patent EP0533925A1, “OPTICAL ISOMER OF R-FORM OF DIPHENYL ETHER DERIVATIVE AND HERBICIDE CONTAINING THE SAME AS ACTIVE INGREDIENT” (TEIJIN LIMITED, priority 1990, dated 1991).
Structures can show the parent of a compound that is named as a salt.

Tests used:
Assay type in all cases: in vivo
Design in all cases: key: 0 means the state where the plants are as sound as before the application of the active compound; 1, 2, 3 and 4 mean varying degrees of the enfeebled state of the plants between 0 and 5; 1, 2, 3 and 4 mean varying degrees of the enfeebled state of the plants between 0 and 5; 1, 2, 3 and 4 mean varying degrees of the enfeebled state of the plants between 0 and 5; 1, 2, 3 and 4 mean varying degrees of the enfeebled state of the plants between 0 and 5; 5 is the state where the plants are withered or killed by application of the active compound
[1] = tested on: Xanthium strumarium; assay: Herbicidal activity, spray of diphenyl ether with N-phosphonomethylglycine derivative (Test Examples 6 to 10); details: Application 0.375 Kg/ha (117) alone
Method: (§1) In these examples, all parts means parts by weight, unless otherwise noted. The herbicidal activity was evaluated on a scale of 6 degrees. In other words, 0 means the state where the plants are as sound as before the application of the active compound, while 5 is the state where the plants are withered or killed by application of the active compound, and 1, 2, 3 and 4 mean varying degrees of the enfeebled state of the plants between 0 and 5.
(§2) In each run, the diphenyl ether derivatives and the N-phosphonomethylglycine derivatives shown in Table 3 (in the indicated mixing ratios) was dissolved in 16 parts by volume of a mixture of water and acetone (1 : 1 by volume; containing 0.05 % of a nonionic surfactant, Sorpol-2680) in the indicated mixing ratio, respectively, to prepare spray solutions.
(§3) The plants tested were grown in vinyl resin pots (diameter 10 cm) filled with soil in a green house for 2 to 3 weeks after germination from seeds or tubers.
(§4) The spray solution was applied to the plants so that the total volume sprayed became 4 cc/100 cm², and the herbicidal activity was examined.
(§5) The alphabetical symbols in Tables 2 and 3 represent the following plants, respectively: a: Digitaria adscendens b: Setaria viridis c: Sorghum halepense d: Chenopodium album var. centrorubrum e: Amaranthus mangostanus f: Astragalus sinicus g: Abutilon theophrosti h: Solanum nigrum i: Xanthium strumarium j: Soybean; Glycine max k: Corn; Zea mays Table 2

[2] = tested on: Amaranthus mangostanus; assay: as above; details: Application 0.375 Kg/ha (117) alone
Method: as §1, §2, §3, §4, §5

[3] = tested on: Chenopodium album var. centrorubrum; assay: as above; details: Application 0.375 Kg/ha (117) alone
Method: as §1, §2, §3, §4, §5

[4] = tested on: Abutilon theophrosti; assay: as above; details: Application 0.375 Kg/ha (117) alone
Method: as §1, §2, §3, §4, §5

[5] = tested on: Soybean; Glycine max; assay: as above; details: Application 0.375 Kg/ha (117) alone
Method: as §1, §2, §3, §4, §5

[6] = tested on: Xanthium strumarium; assay: Herbicidal activity, foliar application of single compounds (Test Examples 1 to 5); details: 3 weeks after application
Method: as §1
(§6) The diphenyl ethers shown in Table 2 were added to 5000 parts of a mixture of acetone and water (1 : 1 by volume), and 2.6 parts of a nonionic surfactant (Sorpol 2680, tradename) was added to form a solution, so that the ether becomes the prescribed amount in each solution.
(§7) Seeds of plants were sown in the soil, cultivated for 2 to 3 weeks, after germination, then the plants were used for the tests.
(§8) The prepared solution was applied to these plants at the prescribed rate of application in total, then the plants were continuously cultivated for 3 weeks without applying the solution.
as §5

[7] = tested on: Amaranthus mangostanus; assay: as above; details: 3 weeks after application
Method: as §1, §6, §7, §8, §5

[8] = tested on: Corn; Zea mays; assay: as above; details: 3 weeks after application
Method: as §1, §6, §7, §8, §5

[9] = Rate of Application 0.016 kg/ha
[10] = Rate of Application 0.031 kg/ha

`O=C(O)CNCP(=O)(O)O` [Compound (117), N-phosphonomethylglycine isopropylammonium salt] was tested, and the “herbicidal activity, Plants i” value ([1]; 3 days after treatment) was 0, the “herbicidal activity, Plants i” value ([1]; 7 days after treatment) was 0 and the “herbicidal activity, Plants i” value ([1]; 14 days after treatment) was 1. For the same compound, the “herbicidal activity, Plants e” value ([2]; 3 days after treatment) was 0, the “herbicidal activity, Plants e” value ([2]; 7 days after treatment) was 0 and the “herbicidal activity, Plants e” value ([2]; 14 days after treatment) was 0. The “herbicidal activity, Plants d” value ([3]; 3 days after treatment) was 0, the “herbicidal activity, Plants d” value ([3]; 7 days after treatment) was 0 and the “herbicidal activity, Plants d” value ([3]; 14 days after treatment) was 1. The “herbicidal activity, Plants g” value ([4]; 3 days after treatment) was 0, the “herbicidal activity, Plants g” value ([4]; 7 days after treatment) was 1 and the “herbicidal activity, Plants g” value ([4]; 14 days after treatment) was 1. For the same compound, the “herbicidal activity, Plants j” value ([5]; 3 days after treatment) was 0, the “herbicidal activity, Plants j” value ([5]; 7 days after treatment) was 0 and the “herbicidal activity, Plants j” value ([5]; 14 days after treatment) was 0.
For `COC(=O)C(C)Oc1cc(Oc2ccc(C(F)(F)F)cc2Cl)ccc1C#N` (stereo not drawn) [Compound (1), Methyl α-[2-cyano-5-(2-chloro-4-trifluoromethylphenoxy)phenoxy]propionate], the “herbicidal activity, Plants i” value [6, 9] was 5, the “herbicidal activity, Plants i” value [6, 10] was 5 and the “herbicidal activity, Plants e” value [7, 9] was 5. For the same compound, the “herbicidal activity, Plants e” value [7, 10] was 5, the “herbicidal activity, Plants k” value [8, 9] was 5 and the “herbicidal activity, Plants k” value [8, 10] was 5.
